Test results reported in US20040023855A1, “Biologic modulations with nanoparticles” (priority 2002, published 2004).
Marks after values point to notes of the source that are not given here.

How the values were obtained:
[1] = system: dog-kidney epithelial cell line MDCK II (Madin-Darby Canine Kidney); details: lactose-inhibitable, cited from earlier work
[2] = target: Galectin-3 (Homo sapiens, UniProt P17931); details: relative affinity, lactose on galectin-3 given as 1; cited from earlier work
[3] = target: T1, Galectin-3C (Homo sapiens, UniProt P17931); details: relative affinity, same scale as galectin-3 column; cited from earlier work
T1 construct: The digestion produced a 143 amino acid residue polypeptide beginning with Gly-108

[4] = Maximum tolerated dose in nude mice; assay type: in vivo; details: without overt adverse effects
[5] = set-up: species or system nude mice; details: mouse, in vivo, im
[6] = system: orthotopically implanted tumors derived from breast cancer cell line MDA-MB435; assay: Orthotopic mouse model of human breast cancer; assay type: in vivo, nude mice
Method: The safety, plasma half-life, and efficacy of galectin-3C in an orthotopic mouse model of human breast cancer was evaluated. A recent feasibility study of the anticancer activity of recombinant human galectin-3 N-terminally truncated by exhaustive digestion with Clostridium histiolyticum collagenase type VII (Sigma; St. Louis, Mo.), (36, 75) in an orthotopic mouse model of metastatic breast cancer (22) produced promising results. The digestion produced a 143 amino acid residue polypeptide beginning with Gly-108. In treated animals the number of primary tumors that metastasized was less than controls by 3-fold (P=0.031), and the mean primary tumor volume of the treated animals was 61% less than the controls (P=0.009). The results provide compelling evidence that treatment with an N-terminally truncated form of galectin-3 could useful in treatment and prevention of cancer, especially metastatic cancer.
One example of the use in vivo of N-terminally truncated galectin-3 is as a potential therapeutic agent for breast cancer. It was determined that therapy with an N-terminally truncated form of galectin-3 is efficacious for inhibition of metastases. To this end, recombinant galectin-3 was produced and the N-terminally truncated galectin-3 was derived by collagenase enzyme digestion and affinity chromatography. Injected N-terminally truncated galectin-3 was detected by metabolic labeling with ^35S methionine prior to collagenase cleavage. […] Mice bearing orthotopically implanted tumors derived from breast cancer cell line MDA-MB435 were treated intramuscularly twice daily for 90 days with N-terminally truncated galectin-3 or a vehicle control. […] In a recent study at the end of the treatment period, the number of treated animals with primary tumors that metastasized was less than controls by 3-fold (P=0.031), and the mean primary tumor volume of the treated animals was 61% less than the controls (P=0.009). The results provide compelling evidence that treatment with an N-terminally truncated form of galectin-3 could useful in treatment and prevention of cancer, especially metastatic cancer. The truncated form of galectin-3 was efficacious in reducing metastases, and the tumor volumes and weights of primary tumors.

[7] = system: Alva-41 prostate carcinoma cells; assay: In vitro growth inhibition (cytotoxicity) by cisplatin nanoparticles; assay type: cell-based, human; details: at doses greater than 60 µg/ml
Method: FIG. 3 is a graph showing the in vitro cytotoxicity of nanoparticles comprising cisplatin and various cell recognition components for Alva-41, human tumor cells derived from a prostate carcinoma metastasis; and
Cisplatin was nanoencapsulated into the various candidate tumor-binding agents as described previously and nanoparticles were compared for growth inhibition in a metastatic variant of Alva-41 prostate carcinoma cells and Ca-9-22. Formulas were tested in duplicate in two separate experiments. Results are illustrated for the prostate cell line in FIG. 3. Referring to FIG. 3, PEX-MMP-l/Cisplatin refers to s50 nanoparticles comprising cisplatin and the Recombinant Pex binding domain of membrane-associated Matrix Metalloproteinase-1 (see Bello et. al, Cancer Research (2001) 61: 8730-36); Tenascin/Cisplatin refers to s50 nanoparticles having tenascin and cisplatin, FN-PHSCN/Cisplatin refers to nanoparticles comprising the FN-PHSCN fragment and cisplatin, galectin-3/cisplatin refers to s50 nanoparticles comprising recombinant N-terminally truncated galectin-3 and cisplatin, hyaluronan/cisplatin refers to s50 nanoparticles comprising hyaluronan and cisplatin, and naked cisplatin refers to the addition of free cisplatin to the cell medium. In these experiments cells were plated at 5,000 per well and followed for 72 hours. […]

[8] = intramuscularly twice daily for 90 days

Galectin-3, sequence (P17931 whole entry): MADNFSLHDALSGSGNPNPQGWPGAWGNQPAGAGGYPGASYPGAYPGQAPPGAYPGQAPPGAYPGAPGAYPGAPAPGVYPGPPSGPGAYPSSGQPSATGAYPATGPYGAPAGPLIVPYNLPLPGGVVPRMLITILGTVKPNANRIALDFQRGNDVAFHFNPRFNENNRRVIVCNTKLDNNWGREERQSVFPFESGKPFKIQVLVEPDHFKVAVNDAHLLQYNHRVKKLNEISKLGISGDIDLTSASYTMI
T1 sequence (P17931 108-250): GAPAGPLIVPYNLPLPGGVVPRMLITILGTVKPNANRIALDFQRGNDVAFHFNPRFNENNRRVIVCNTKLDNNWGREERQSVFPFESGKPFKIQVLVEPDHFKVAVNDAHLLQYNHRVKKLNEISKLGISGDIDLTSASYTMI

**Q.** Which “apically bound radiolabeled galectin-3 endocytosed” value ([1]; Transwell chambers) does the source give for “galectin-3: intact wild-type galectin-3, chimera type β-galactoside binding lectin (SEQ ID NO. 3)” here?
**A.** more than 90%

**Q.** And the galectin-3 transcytosed ([1]; after 120 min)?
**A.** 20%

**Q.** For Galβ1→4GlcNAc [Galβ1→4GlcNAc (LacNAc)], which “Relative Carbohydrate Affinities, Galectin-3” value [2] is on record?
**A.** 11.3

**Q.** With (LacNAc)2 as the compound, how does the “Relative Carbohydrate Affinities, Galectin-3” value [2] read?
**A.** 20*

**Q.** What about the “Relative Carbohydrate Affinities, Galectin-3C” value [3] of the same compound?
**A.** 54

**Q.** With `CO[C@H]1O[C@H](CO)[C@H](O)[C@H](O[C@H]2O[C@H](CO)[C@H](O)[C@H](O)[C@H]2O)[C@H]1O` [Galα1→3GalαOme] as the compound, how does the “Relative Carbohydrate Affinities, Galectin-3” value [2] read?
**A.** 0.2

**Q.** What does the source list for “N-terminally truncated galectin-3: recombinant human galectin-3 truncated by collagenase digestion; 143 amino acid polypeptide beginning with Gly-108 (SEQ ID NO. 1)”?
**A.** maximum tolerated dose [4]: greater than 125 mg/kg; pharmacokinetic elimination half-life [5]: 4.56 h; mean primary tumor volume less than the controls ([6]; end of treatment period, P=0.009): 61%; number of treated animals with primary tumors that metastasized, less than controls ([6]; end of treatment period, P=0.031): 3 fold; mean tumor volumes compared with control mice [6, 8]: statistically significantly less; mean tumor weights compared with control mice [6, 8]: statistically significantly less; mice with lymph node metastases compared with control group [6, 8]: fewer numbers of mice exhibited lymph node metastases

**Q.** Which “activity compared to the other nanocapsule formulations” value [7] does the source give for `N.N.[Cl][Pt][Cl]` [free cisplatin, cisplatin] here?
**A.** greatest activity

**Q.** For Galβ1→3GlcNAc, which “Relative Carbohydrate Affinities, Galectin-3” value [2] is on record?
**A.** 6.3

**Q.** Which results are given for (LacNAc)5?
**A.** Relative Carbohydrate Affinities, Galectin-3 [2]: 137; Relative Carbohydrate Affinities, Galectin-3C [3]: 60.5

**Q.** For “Galβ1→4(Fucα1→3)GlcNAc [Galβ1→4(Fucα1→3)GlcNAc (LeX)]”, which “Relative Carbohydrate Affinities, Galectin-3” value [2] is on record?
**A.** <0.02
